Literature values in US20230190684A1, “METHODS OF TREATING COVID-19 WITH A NICLOSAMIDE COMPOUND” (priority 2020, published 2023).
Structures can show the parent of a compound that is named as a salt.

Columns and labels:
[1] = patients treated with niclosamide; literature (McEvoy 1995)
[2] = in vivo

SMILES | Less frequently reported AEs: rash, oral irritation, fever, rectal bleeding, weakness, bad taste in mouth, sweating, palpitation, constipation, alopecia, oedema of an arm, backache, irritability [1] [%] | Other reported AEs: vomiting; abdominal discomfort possibly associated with anorexia, diarrhea, drowsiness, dizziness and headache [1] | solubility in acetone (acetone) | solubility in ether, ethanol and chloroform (ether, ethanol and chloroform) | water solubility (water, 20° C.) [µg/mL] | systemic bioavailability [2] | dissolves in distilled water (distilled water, 20° C.) [mg/L]
O=C(Nc1ccc([N+](=O)[O-])cc1Cl)c1cc(Cl)ccc1O [Niclosamide, 5-chloro-N-(2-chloro-4-nitrophenyl)-2-hydroxybenzamide] | < 1 | 1-4 % of patients | soluble | sparingly soluble | 5 to 8 | low | 
O=C(Nc1ccc([N+](=O)[O-])cc1Cl)c1cc(Cl)ccc1O [ethanolamine salt, 5-chloro-salicyl-(2-chloro-4-nitro) anilide 2-aminoethanol salt] |  |  |  |  |  |  | 180 to 280
